Laboratory results: patent US20180000750A1, “ANTIPLATELET AGENT AND USES THEREOF” (priority 2015, published 2018)

Legend:
[1] = molecular target: T1, platelet glycoprotein (GP) IIb/IIIa receptors (Homo sapiens, UniProt P05106+P08514); assay: VerifyNow GPIIb/IIIa assay (PAU); assay type: cell-based; settings: no treatment 161
T1 construct: It is a whole-blood assay based on light transmission measurements; endogenous in cells; host or cells: platelets in citrated whole blood of healthy volunteers
Text: (§1) It is a whole-blood assay based on light transmission measurements. The assay is a turbidimetric-based optical detection system that, like optical aggregometry, depends on the ability of activated platelets to bind fibrinogen. When platelets are activated, they form aggregates with fibrinogen-coated beads and the light transmission through the samples increases. Arachidonic acid, ADP and thrombin receptor activating peptide are the corresponding agonists used in VerifyNow system to specifically differentiate the platelet activation pathways. In the aspirin-specific assay, the degree of aggregation attenuated by aspirin, which blocks the arachidonic acid pathway, is quantified according to a corresponding decrease in light transmission and is reported as aspirin reaction units (ARU). ARU value less than 550 indicates adequate platelet inhibition by aspirin treatment. The residual activity of platelet after inhibition on P2Y12 receptor is represented as the P2Y12 reaction units (PRU). The normal PRU distribution range without anti-platelet therapy is 194-418. P2Y12 antagonist like clopidogrel and ticagrelor may be used as the positive control. […] The reference range was 125-330. Aggrastat may be used as the positive control medication for PAU value.
(§2) The VerifyNow P2Y12 system measures the rate and extent of changes in light transmittance caused by platelets aggregating in whole blood samples.

arachidonic acid pathway = assay: VerifyNow aspirin assay (ARU); assay type: cell-based, human; settings: no treatment 660
Text: as §1, §2

P2Y12 receptor = molecular target: T2, P2Y12 receptor (Homo sapiens, UniProt Q9H244); assay: VerifyNow P2Y12 assay (PRU); assay type: cell-based; settings: no treatment 314
T2 construct: It is a whole-blood assay based on light transmission measurements; endogenous in cells; host or cells: platelets in citrated whole blood of healthy volunteers
Text: as §1, §2

platelets [2] = assay: PFA-100 platelet function, collagen/epinephrine (CEPI) cartridge closure time; assay type: cell-based, human; settings: 10 μM, collagen-epinephrine stimulus, citrated whole blood; control 125 sec
Procedure: (§3) Ten healthy, non-smoking volunteers (6 women, 4 men), ages 23-39 years old, participated in this study. The citrated whole blood samples were incubated at room temperature for 60 min. with physalin B (dissolved in 0.5% DMSO) or the vehicle alone. Platelet function measurement was performed with a PFA-100 analyzer system (Dade-Behring, Marburg, Germany). The PFA-100TM device measures the closure time (CT) required for platelets to plug an aperture simulating an injured vessel after platelet activation by relevant stimuli, namely collagen-epinephrine (EPI) or collagen-ADP (ADP). The maximum value for closure time is 300 seconds and values greater than 300 seconds are reported as non-closure. The closure time was determined with duplicate samples of 800 μL using cartridges containing collagen-epinephrine or collagen-ADP membranes.
(§4) The PFA-100 system is a platelet function analyzer designed to measure platelet-related primary hemostasis. The system uses two disposable cartridges: a collagen/epinephrine (CEPI) and a collagen/ADP (CADP) cartridge.

platelets [3] = assay: PFA-100 platelet function, collagen/ADP (CADP) cartridge closure time; assay type: cell-based, human; settings: 10 μM, collagen/ADP stimulus, citrated whole blood
Procedure: as §3, §4

Tail bleeding time = assay type: in vivo, ICR mice; settings: mice, intraperitoneal, 0.1 mg/Kg, cut 30 minutes after treatment; DMSO vehicle 83.1±11.7 sec
Text: (§5) ICR mice (7-8 weeks old, each weighted about 18 to 25 g) were used in this study. All mice were maintained in the animal facility under 12 hrs light/dark cycle, with ad libitum access to food and water.
Briefly, the test mice were randomly divided into three groups, in which the control mice received intraperitoneal injection of normal saline, whereas mice in the vehicle and the test groups respectively received intraperitoneal injection of the vehicle (i.e., DMSO) and Physalin B (i.e., […]). A cut (about 2-3 mm in length) was incised on the tail vein of each mice (about 3-5 cm from the tip of the tail) 30 minutes after the indicated treatment, then the blood was collected into a warm saline, in which the volume and the time to cessation of bleeding were both measured. Bleeding time was defined as the time in which the first cessation of bleeding was observed. Results are illustrated in FIG. 2.

[4] = Occlusion time for irradiation induced platelet plug formation in mesenteric venules; assay type: in vivo, ICR mice; settings: mice, DMSO vehicle 241±6.8 sec
Text: as §5
In this example, the effects of Physalin B on the aggregation of platelets were investigated by the measurement of the occlusion time for irradiation induced platelet plug formation. Briefly, mice were respectively treated with normal saline, DMSO vehicle, and Physalin B (i.e., 0.025, 0.05, or 0.1 mg/g), then the mesentertic venules were selected for irradiation to induce microthrombus formation. The occlusion time was defined as the time in which the platelet plug was first observed. Results are illustrated in FIG. 3.

platelets [5] = assay: Lactate dehydrogenase release from platelets (cytotoxicity); assay type: cell-based; settings: up to 160 μM, 30 min at 37° C.
Procedure: Cytotoxicity of physalin B on platelets were evaluated by measuring the release of lactate dehydrogenase (LDH). Platelets were suspended in Tyrodes's solution at a concentration of 3×10^8 platelets/ml. For positive control, platelets were disrupted by sonication at 4° C. for 30 sec at 40 kHz with a Biosonic Sonicator. The supernatant was used for LDH determinations. LDH activity was measured as an increase in the absorbance of NADH at 340 nm using lactate as substrates. The tests were carried out with a Toshiba Medical automatic chemical analyzer, TBA-200FR (Toshiba Medical products). The platelets were pretreated with various concentrations of physalin B for 30 min at 37° C., and the supernatant was used to measure the LDH activity.
In this example, the cytotoxic effect of physalin B on platelets was investigated by measuring the activity of lactate dehydrogenase (LDH) released from the ruptured platelets. The platelets were exposed to various concentrations of physalin B (PHB) or DMSO, which was used as the vehicle control, while sonication ruptured platelets served as a positive control. The final concentration of DMSO in the test medium was less than 0.1%. Results are depicted in FIG. 4.

late EPCs = assay: MTT cell viability, late EPCs; assay type: cell-based, human; settings: 48 hrs, read-out: IC50 (cytotoxicity, MTT)
Procedure: Two different types of EPCs were cultured from adult peripheral blood and defined as early EPCs and late EPCs according to their time-dependent appearance. […] Peripheral blood (20 mL) was obtained from donors with informed consent. The mononuclear cells were fractionated from other components of peripheral blood by centrifugation on Histopaque 1077 (Sigma, St. Louis, Mo.), with gradients according to the manufacturer's instructions. The isolated mononuclear cells were re-suspended with a EGM-2 BulletKit system (catalog number CC-3162; Clonetics™) consisting of an endothelial basal medium, 5% fetal bovine serum, hEGF, VEGF, hFGF-B, IGF-1, ascorbic acid, and heparin; 1×10^7 mononuclear cells per well were seeded on 2% gelatin-coated 6-well plates (Sigma, St. Louis, Mo.) and incubated in a 5% CO2 incubator at 37° C. […]
Cell viability was measured with blue formazan that was metabolized from 3-(4,5-dimethylthiazol-2-yl)-2, 5-diphenyl tetrazolium bromide (MTT, Amresco USA) in mitochondria, which is active only in live cells. […] The absorbance of each well was measured at 540 nm with an ELISA reader and the percentage viability was calculated.
The in vitro cytotoxic effect of physalin B on HUVEC and EPCs were respectively determined by MTT assay, in which cells were exposed to various concentrations of physalin B (i.e., 0, 20, 40, 80 and 160 μM). […]

HUVECs = assay: MTT cell viability, HUVECs; assay type: cell-based, human; settings: 48 hrs, read-out: IC50 (cytotoxicity, MTT)
Procedure: HUVECs were purchased from American Type Culture Collection (ATCC) and were cultivated in endothelal cell nutrient medium consisting of 20% heat-inactivated fetal bovine serum (FBS), 80% Medium 199 (M199) buffered with 25 mM HEPES and supplemented with 2 mM L-Glutamine and 100 U/ml K-Penicillin and 100 μg/mL streptomycin, and kept at 37° C. in a 5% CO2 atmosphere.
Cell viability was measured with blue formazan that was metabolized from 3-(4,5-dimethylthiazol-2-yl)-2, 5-diphenyl tetrazolium bromide (MTT, Amresco USA) in mitochondria, which is active only in live cells. HUVEC and late EPCs were seeded in a 96-well plate at a density of 1×10^5 cells per well, cultured overnight and pretreated with various concentrations of physalin B. After incubation for 6 hr, 24 hr and 48 hr, the MTT (5 mg/ml) colorimetric viability test was used to determine the viability of cells. The absorbance of each well was measured at 540 nm with an ELISA reader and the percentage viability was calculated.
The in vitro cytotoxic effect of physalin B on HUVEC and EPCs were respectively determined by MTT assay, in which cells were exposed to various concentrations of physalin B (i.e., 0, 20, 40, 80 and 160 μM). Results are illustrated in FIGS. 5A and 5B.

[6] = system: adhesion of THP-1 to HUVECs; assay: THP-1 cell adhesion to TNF-α-activated HUVECs; assay type: cell-based, human; settings: 80 μM, TNF-α-exposed cells, compared to TNF-α alone
Procedure: HUVECs were starved in serum-free medium for 1 hour before treatments. For adhesion assays, HUVECs monolayers in 96-well plates were treated for 2 hours with physalin B and/or TNF-α for 4 hours. After treatment, 1×10^6 THP-1 cells labeled with 5 μM calcein-AM were seeded onto confluent HUVECs and co-cultured for 30 min at 37° C. in 5% CO2 incubator. Non-adherent THP-1 cells were removed by washing with 1× phosphate buffered saline (PBS) twice. Cell images were collected by a fluorescence microscope (Zeiss) and quantified using a fluorescence microplate reader at an excitation wavelength of 490 nm and an emission wavelength of 525 nm (Bio-Tek Synergy HT).
The in vitro adhesion of THP-1 to HUVECs was monitored by use of a fluorescence dye, Calcein-AM, which stains only the viable cells. Briefly, THP-1 cells were labeled with calcein-AM first, then co-cultured with physalin B pre-treated HUVECs in the presence of TNF-α, which was added to induce inflammation. The fluorescence intensity at 525 nm was then measured.

[7] = reference drug treatment, normal range 194-418

T1 sequence (P08514 32-887 limits assumed): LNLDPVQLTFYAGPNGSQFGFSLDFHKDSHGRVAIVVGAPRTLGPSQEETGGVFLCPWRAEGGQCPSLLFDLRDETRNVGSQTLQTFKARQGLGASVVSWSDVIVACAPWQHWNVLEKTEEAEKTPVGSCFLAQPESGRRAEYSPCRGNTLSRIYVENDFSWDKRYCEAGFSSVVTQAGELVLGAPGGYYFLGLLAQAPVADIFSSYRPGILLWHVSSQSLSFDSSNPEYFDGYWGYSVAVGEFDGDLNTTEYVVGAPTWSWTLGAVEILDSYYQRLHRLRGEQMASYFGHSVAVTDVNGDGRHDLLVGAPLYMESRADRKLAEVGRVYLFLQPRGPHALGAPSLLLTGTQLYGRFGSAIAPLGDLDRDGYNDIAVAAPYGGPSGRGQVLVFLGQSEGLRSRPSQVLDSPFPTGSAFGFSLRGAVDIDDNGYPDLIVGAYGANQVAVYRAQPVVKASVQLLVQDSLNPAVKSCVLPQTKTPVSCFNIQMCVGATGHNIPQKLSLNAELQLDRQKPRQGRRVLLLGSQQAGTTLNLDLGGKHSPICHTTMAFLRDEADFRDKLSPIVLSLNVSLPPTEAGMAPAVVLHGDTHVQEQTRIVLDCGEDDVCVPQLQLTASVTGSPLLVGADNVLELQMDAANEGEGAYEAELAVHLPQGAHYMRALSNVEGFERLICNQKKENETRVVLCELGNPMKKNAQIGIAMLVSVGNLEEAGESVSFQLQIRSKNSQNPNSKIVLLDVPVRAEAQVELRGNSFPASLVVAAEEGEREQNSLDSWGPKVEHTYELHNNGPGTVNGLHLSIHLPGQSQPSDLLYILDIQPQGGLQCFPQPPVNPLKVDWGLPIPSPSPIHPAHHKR
T1 sequence (P08514 891-1039 limits assumed): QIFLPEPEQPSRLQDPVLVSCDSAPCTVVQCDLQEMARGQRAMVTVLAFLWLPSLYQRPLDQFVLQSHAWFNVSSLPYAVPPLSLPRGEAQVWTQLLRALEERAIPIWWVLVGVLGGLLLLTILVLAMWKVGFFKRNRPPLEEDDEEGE
T1 sequence (P05106 27-788): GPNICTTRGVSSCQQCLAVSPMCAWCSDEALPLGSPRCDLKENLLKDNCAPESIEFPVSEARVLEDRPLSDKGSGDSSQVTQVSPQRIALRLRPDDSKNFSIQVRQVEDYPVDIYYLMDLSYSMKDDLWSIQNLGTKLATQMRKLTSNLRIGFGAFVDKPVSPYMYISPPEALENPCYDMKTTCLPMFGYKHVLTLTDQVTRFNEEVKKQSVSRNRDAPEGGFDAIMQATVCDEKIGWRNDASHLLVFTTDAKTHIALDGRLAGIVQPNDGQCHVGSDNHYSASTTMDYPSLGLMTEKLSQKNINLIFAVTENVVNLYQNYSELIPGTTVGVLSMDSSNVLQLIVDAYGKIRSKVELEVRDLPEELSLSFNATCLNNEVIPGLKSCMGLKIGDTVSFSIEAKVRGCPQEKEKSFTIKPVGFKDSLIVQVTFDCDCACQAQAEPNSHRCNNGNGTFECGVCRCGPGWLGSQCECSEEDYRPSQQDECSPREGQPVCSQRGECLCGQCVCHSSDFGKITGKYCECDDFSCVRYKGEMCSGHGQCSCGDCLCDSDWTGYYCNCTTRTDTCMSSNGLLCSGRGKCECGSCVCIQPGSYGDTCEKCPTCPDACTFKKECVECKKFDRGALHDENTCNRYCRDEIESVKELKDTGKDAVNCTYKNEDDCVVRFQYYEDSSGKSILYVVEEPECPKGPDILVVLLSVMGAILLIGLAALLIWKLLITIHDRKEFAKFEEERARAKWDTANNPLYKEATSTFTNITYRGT
T2 sequence (Q9H244 whole entry): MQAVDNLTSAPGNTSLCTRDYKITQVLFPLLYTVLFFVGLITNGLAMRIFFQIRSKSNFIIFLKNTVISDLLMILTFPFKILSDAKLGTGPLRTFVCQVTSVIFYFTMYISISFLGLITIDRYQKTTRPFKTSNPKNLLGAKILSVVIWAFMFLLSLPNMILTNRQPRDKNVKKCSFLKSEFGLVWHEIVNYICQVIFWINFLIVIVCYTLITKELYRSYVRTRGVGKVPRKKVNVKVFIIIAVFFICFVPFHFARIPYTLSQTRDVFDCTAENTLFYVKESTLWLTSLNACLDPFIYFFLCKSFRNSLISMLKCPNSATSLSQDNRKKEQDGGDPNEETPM

CCCCS(=O)(=O)N[C@@H](Cc1ccc(OCCCCC2CCNCC2)cc1)C(=O)O [Aggrastat, reference compound]
GPIIb/IIIa (PAU) ([1]; reference drug treatment, reference range 125-330): 1 PAU

CC(=O)Oc1ccccc1C(=O)O [Aspirin, Acetylsalicylic acid, reference compound]
Aspirin (ARU) (arachidonic acid pathway; reference drug treatment, <550 indicates adequate inhibition): 404 ARU

COC(=O)[C@H](c1ccccc1Cl)N1CCc2sccc2C1 [Clopidogrel, reference compound]
P2Y12 (PRU) (P2Y12 receptor; [7]): 263 PRU

C[C@]12C(=O)C=CCC1=CC[C@@H]1[C@@H]2CC[C@]2(O)C(=O)O[C@@]3(C)[C@H]4C[C@]5(C)[C@@H](CO[C@@]16O[C@@]32[C@H]5C6=O)C(=O)O4 [Physalin B]
closure time (platelets [2]): 260 s | closure time (platelets [3]): statistically significant prolonged closure time | Aspirin (ARU) (arachidonic acid pathway; 20 μM): 469 ARU | Aspirin (ARU) (arachidonic acid pathway; 50 μM): 366 ARU | P2Y12 (PRU) (P2Y12 receptor; 20 μM): 226 PRU | P2Y12 (PRU) (P2Y12 receptor; 50 μM): 65 PRU | GPIIb/IIIa (PAU) ([1]; 20 μM): 144 PAU | GPIIb/IIIa (PAU) ([1]; 50 μM): 129 PAU | tail bleeding time (Tail bleeding time): 224.4 ± 58.9 s | occlusion time ([4]; 0.025 mg/g): 349 ± 12.3 s | occlusion time ([4]; 0.05 mg/g): 390 ± 7 s | occlusion time ([4]; 0.1 mg/g): 415 ± 34.5 s | LDH release from platelets (platelets [5]): no obvious LDH release | IC50 (late EPCs): 76 µM | IC50 (HUVECs): 30 µM | inhibition on the adhesion of THP-1 to HUVECs [6]: about 35%

CCCSc1nc(N[C@@H]2C[C@H]2c2ccc(F)c(F)c2)c2nnn([C@@H]3C[C@H](OCCO)[C@@H](O)[C@H]3O)c2n1 [Ticagrelor, reference compound]
P2Y12 (PRU) (P2Y12 receptor; [7]): 1 PRU
